The record followed here is the NIST ThermoML archive (doi:10.1016/j.tca.2016.09.002).

Structures are written as SMILES. ± gives the expanded uncertainty stated by the source.

Data set [1] can be described thus: wn = mass fraction of the nth substance listed. The following applies: 303.15 K, 100.7 kPa, Liquid, Hot wire method.
For data set [2] the following is noted: 101.33 kPa, Liquid, Hot wire method.

For `C[C@H](CCC(=O)[O-])[C@H]1CC[C@H]2[C@@H]3CC[C@@H]4C[C@H](O)CC[C@]4(C)[C@H]3C[C@H](O)[C@]12C.[Na+]` [sodium deoxycholate] + O, the thermal conductivity in data set [1] (w1 = 0.0085) worked out at 0.617 ± 0.006 W/m/K.
With `C[C@H](CCC(=O)[O-])[C@H]1CC[C@H]2[C@@H]3CC[C@@H]4C[C@H](O)CC[C@]4(C)[C@H]3C[C@H](O)[C@]12C.[Na+]` [sodium deoxycholate] + OCCO, the thermal conductivity in data set [1] (w1 = 0.00761) stood at 0.259 ± 0.003 W/m/K.
For the molecule `OCCO` [1,2-ethanediol], the thermal conductivity in data set [2] (303.15 K) stood at 0.254 ± 0.003 W/m/K; in data set [2] (313.15 K), 0.256 ± 0.004 W/m/K; in data set [2] (323.15 K) it was 0.26 ± 0.003 W/m/K.
For `O` [water], the thermal conductivity in data set [2] (303.15 K) is on record as 0.607 ± 0.015 W/m/K; in data set [2] (313.15 K) it was 0.621 ± 0.016 W/m/K; in data set [2] (323.15 K), 0.631 ± 0.016 W/m/K.
